Results taken from US20260285850A1, “SUBSTITUTED OXAZOLIDINONES AND IMIDAZOLINONES AS HERBICIDES” (FMC CORPORATION, priority 2023, published 2026).

Tests used:
Format in all cases: in vivo
[1] = test system: oat, wild (wild oat, Avena fatua); experiment: Test A postemergence application, visual injury rating 0-100; details: 10 days
How it was run: (§1)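 Compounds formulated in a non-phytotoxic solvent with surfactant are sprayed onto soil of freshly planted loam-sand pots ahead of emergence, or onto emerged plants 2-10 cm tall. After a 10-day greenhouse period, each species is scored visually for injury against untreated controls.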

[2] = test system: corn (Zea mays); experiment: as above; details: 10 days
How it was run: as §1

[3] = test system: soybean (Glycine max); experiment: as above; details: 10 days
How it was run: as §1

[4] = test system: blackgrass (Alopecurus myosuroides); experiment: as above; details: 10 days
How it was run: as §1

[5] = test system: ryegrass, Italian (italian ryegrass, Lolium multiflorum); experiment: as above; details: 10 days
How it was run: as §1

[6] = test system: galium (catchweed bedstraw, Galium aparine); experiment: as above; details: 10 days
How it was run: as §1

[7] = test system: wheat (Triticum aestivum); experiment: as above; details: 10 days
How it was run: as §1

[8] = test system: horseweed (Erigeron canadensis); experiment: as above; details: 10 days
How it was run: as §1

[9] = test system: palmer (palmer amaranth, palmer pigweed, Amaranthus palmeri); experiment: as above; details: 10 days
How it was run: as §1

[10] = test system: green foxtail (Setaria viridis); experiment: as above; details: 10 days
How it was run: as §1

[11] = test system: kochia (Bassia scoparia); experiment: as above; details: 10 days
How it was run: as §1

[12] = test system: ragweed (common ragweed, Ambrosia artemisiifolia); experiment: as above; details: 10 days
How it was run: as §1

[13] = test system: barnyardgrass (Echinochloa crus-galli); experiment: as above; details: 10 days
How it was run: as §1

[14] = test system: sedge, umbrella (small-flower umbrella sedge, Cyperus difformis); experiment: Test B flooded paddy test, visual plant response rating 0-100; details: 250 g ai/ha, Flood, applied to paddy water, evaluated after 13 days
How it was run: (§2)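 Each species was raised to two leaves before flooding to a 3 cm depth and dosing the water with compound. Injury was assessed by eye after 13 days under greenhouse conditions.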

[15] = test system: ducksalad (Heteranthera limosa); experiment: as above; details: 250 g ai/ha, Flood, applied to paddy water, evaluated after 13 days
How it was run: as §2

[16] = test system: barnyardgrass (Echinochloa crusgalli); experiment: as above; details: 250 g ai/ha, Flood, applied to paddy water, evaluated after 13 days
How it was run: as §2

[17] = test system: rice (Oryza sativa); experiment: as above; details: 250 g ai/ha, Flood, applied to paddy water, evaluated after 13 days
How it was run: as §2

[18] = test system: oat, wild (wild oat, Avena fatua); experiment: Test A preemergence soil spray, visual injury rating 0-100; details: 10 days, 0 = no effect, 100 = complete control
How it was run: as §1

[19] = test system: corn (Zea mays); experiment: as above; details: 10 days, 0 = no effect, 100 = complete control
How it was run: as §1

[20] = test system: soybean (Glycine max); experiment: as above; details: 10 days, 0 = no effect, 100 = complete control
How it was run: as §1

[21] = test system: blackgrass (Alopecurus myosuroides); experiment: as above; details: 10 days, 0 = no effect, 100 = complete control
How it was run: as §1

[22] = test system: ryegrass, Italian (italian ryegrass, Lolium multiflorum); experiment: as above; details: 10 days, 0 = no effect, 100 = complete control
How it was run: as §1

[23] = test system: wheat (Triticum aestivum); experiment: as above; details: 10 days, 0 = no effect, 100 = complete control
How it was run: as §1

[24] = test system: palmer (palmer amaranth, palmer pigweed, Amaranthus palmeri); experiment: as above; details: 10 days, 0 = no effect, 100 = complete control
How it was run: as §1

[25] = test system: green foxtail (Setaria viridis); experiment: as above; details: 10 days, 0 = no effect, 100 = complete control
How it was run: as §1

[26] = test system: kochia (Bassia scoparia); experiment: as above; details: 10 days, 0 = no effect, 100 = complete control
How it was run: as §1

[27] = test system: ragweed (common ragweed, Ambrosia artemisiifolia); experiment: as above; details: 10 days, 0 = no effect, 100 = complete control
How it was run: as §1

[28] = test system: barnyardgrass (Echinochloa crus-galli); experiment: as above; details: 10 days, 0 = no effect, 100 = complete control
How it was run: as §1

[29] = 31 g ai/ha, postemergence, 0 = no effect, 100 = complete control
[30] = Postemergence, 125 g ai/ha, 0 is no effect, 100 is complete control

CC(C)OC(=O)C1CC(NC(=O)C2(C)CN(c3cc(F)cc(F)c3)C(=O)O2)CO1 (stereo not shown) [Compound 32]
Oat, Wild plant response rating (0-100) [1, 29]: 80
Oat, Wild plant response rating (0 to 100 scale) [1, 30]: 90
Corn plant response rating (0-100) [2, 29]: 0
Corn plant response rating (0 to 100 scale) [2, 30]: 50
Soybean plant response rating (0-100) [3, 29]: 20
Soybean plant response rating (0 to 100 scale) [3, 30]: 60
Blackgrass plant response rating (0-100) [4, 29]: 80
Blackgrass plant response rating (0 to 100 scale) [4, 30]: 100
Ryegrass, Italian plant response rating (0-100) [5, 29]: 20
Ryegrass, Italian plant response rating (0 to 100 scale) [5, 30]: 80
Galium plant response rating (0-100) [6, 29]: 50
Galium plant response rating (0 to 100 scale) [6, 30]: 80
Wheat plant response rating (0-100) [7, 29]: 80
Wheat plant response rating (0 to 100 scale) [7, 30]: 90
Horseweed plant response rating (0-100) [8, 29]: 0
Horseweed plant response rating (0 to 100 scale) [8, 30]: 0
Amaranth, Palmer plant response rating (0-100) [9, 29]: 0
Amaranth, Palmer / Pigweed, Palmer plant response rating (0 to 100 scale) [9, 30]: 30
Foxtail, Green plant response rating (0-100) [10, 29]: 0
Foxtail, Green plant response rating (0 to 100 scale) [10, 30]: 40
Kochia plant response rating (0-100) [11, 29]: 40
Kochia plant response rating (0 to 100 scale) [11, 30]: 50
Ragweed plant response rating (0-100) [12, 29]: 30
Ragweed plant response rating (0 to 100 scale) [12, 30]: 50
Barnyardgrass plant response rating (0-100) [13, 29]: 0
Barnyardgrass plant response rating (0 to 100 scale) [13, 30]: 90
Plant response rating, Sedge, Umbrella (0 to 100 scale, 0 is no effect and 100 is complete control) [14]: 0
Plant response rating, Ducksalad (0 to 100 scale, 0 is no effect and 100 is complete control) [15]: 0
Plant response rating, Barnyardgrass (0 to 100 scale, 0 is no effect and 100 is complete control) [16]: 0
Plant response rating, Rice (0 to 100 scale, 0 is no effect and 100 is complete control) [17]: 0
Oat, Wild plant response rating (0-100) ([18]; 31 g ai/ha): 0
Oat, Wild plant response rating (0 to 100 scale) ([18]; 125 g ai/ha): 40
Corn plant response rating (0-100) ([19]; 31 g ai/ha): 0
Corn plant response rating (0 to 100 scale) ([19]; 125 g ai/ha): 10
Soybean plant response rating (0-100) ([20]; 31 g ai/ha): 20
Soybean plant response rating (0 to 100 scale) ([20]; 125 g ai/ha): 0
Blackgrass plant response rating (0-100) ([21]; 31 g ai/ha): 0
Blackgrass plant response rating (0 to 100 scale) ([21]; 125 g ai/ha): 0
Ryegrass, Italian plant response rating (0-100) ([22]; 31 g ai/ha): 0
Ryegrass, Italian plant response rating (0 to 100 scale) ([22]; 125 g ai/ha): 80
Wheat plant response rating (0-100) ([23]; 31 g ai/ha): 0
Wheat plant response rating (0 to 100 scale) ([23]; 125 g ai/ha): 70
Amaranth, Palmer plant response rating (0-100) ([24]; 31 g ai/ha): 0
Amaranth, Palmer plant response rating (0 to 100 scale) ([24]; 125 g ai/ha): 0
Foxtail, Green plant response rating (0-100) ([25]; 31 g ai/ha): 0
Foxtail, Green plant response rating (0 to 100 scale) ([25]; 125 g ai/ha): 0
Kochia plant response rating (0-100) ([26]; 31 g ai/ha): 0
Kochia plant response rating (0 to 100 scale) ([26]; 125 g ai/ha): 20
Ragweed plant response rating (0-100) ([27]; 31 g ai/ha): 0
Ragweed plant response rating (0 to 100 scale) ([27]; 125 g ai/ha): 0
Barnyardgrass plant response rating (0-100) ([28]; 31 g ai/ha): 0
Barnyardgrass plant response rating (0 to 100 scale) ([28]; 125 g ai/ha): 0
